Measurements as given in patent US20250170130A1, “MODULATORS OF MYC FAMILY PROTO-ONCOGENE PROTEIN” (Nalo Therapeutics, priority 2022, published 2025).
Read-outs that look alike come from different tables or passages of the source.

How the values were obtained:
[1] = biological target: T1, MycN (Homo sapiens, UniProt P04198); assay: Degradation of MycN protein in SK-N-BE(2) cells, JESS/Western blot of lysates; assay type: cell-based; conditions: SKNBE2, 24 h; for Dmax at 0.5 µM: read-out: % Degradation of MycN (SKNBE2) 24 h, 0.5 μM; for Dmax at 1 µM: read-out: % Degradation of MycN (SKNBE2) 24 h, 1 μM; for Dmax at 3 µM: read-out: % Degradation of MycN (SKNBE2) 24 h, 3 μM; for Dmax at 6 µM: read-out: % Degradation of MycN (SKNBE2) 24 h, 6 μM
T1 construct: endogenous in cells; host or cells: SK-N-BE(2)
T1 sequence (P04198 1-464): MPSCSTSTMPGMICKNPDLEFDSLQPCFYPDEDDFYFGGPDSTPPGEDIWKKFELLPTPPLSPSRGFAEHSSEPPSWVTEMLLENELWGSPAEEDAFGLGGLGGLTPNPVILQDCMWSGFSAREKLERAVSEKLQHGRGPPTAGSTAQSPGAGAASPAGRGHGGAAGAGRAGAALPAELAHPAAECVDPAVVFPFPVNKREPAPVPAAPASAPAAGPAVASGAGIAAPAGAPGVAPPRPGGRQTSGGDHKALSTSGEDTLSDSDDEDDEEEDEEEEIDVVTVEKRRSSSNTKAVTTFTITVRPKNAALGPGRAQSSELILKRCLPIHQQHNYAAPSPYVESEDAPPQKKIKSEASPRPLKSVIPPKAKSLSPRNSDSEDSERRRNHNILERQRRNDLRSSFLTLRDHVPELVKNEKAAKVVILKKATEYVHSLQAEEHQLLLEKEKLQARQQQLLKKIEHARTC
In short: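 SK-N-BE(2) adherent cells (5E5 per well of a 6 well dish) were grown 24 hrs, then exposed to compounds diluted 1 in 20 in media, with DMSO controls, for 24 hrs. Cells were scraped, pelleted, PBS washed and lysed in RIPA buffer cocktail; after BCA protein quantitation, n-myc was detected by chemiluminescence on JESS/Western blot with tubulin and GAPDH loading controls read in the near infra red channel.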

[2] = biological target: T2, MycC (Homo sapiens, UniProt P01106); assay: Degradation of MycC protein in L363 cells, JESS/Western blot of lysates; assay type: cell-based; conditions: L-363, 24 h; for Dmax at 0.5 µM: read-out: % Degradation of MycC (L-363) 24 h, 0.5 μM; for Dmax at 1 µM: read-out: % Degradation of MycC (L-363) 24 h, 1 μM; for Dmax at 3 µM: read-out: % Degradation of MycC (L-363) 24 h, 3 μM; for Dmax at 6 µM: read-out: % Degradation of MycC (L-363) 24 h, 6 μM
T2 construct: endogenous in cells; host or cells: L363
In short: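 L363 suspension cells were seeded at 1E6 cells per well and exposed to compound (stock 10 mM in DMSO) for 24 hrs. Cells were collected, spun down, rinsed with PBS, lysed in RIPA buffer cocktail on ice, clarified and kept at −80 degrees. Lysate protein was quantified by BCA, and c-myc was measured on JESS by chemiluminescence with tubulin and GAPDH loading controls in the NIR channel.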

T2 sequence (P01106 whole entry): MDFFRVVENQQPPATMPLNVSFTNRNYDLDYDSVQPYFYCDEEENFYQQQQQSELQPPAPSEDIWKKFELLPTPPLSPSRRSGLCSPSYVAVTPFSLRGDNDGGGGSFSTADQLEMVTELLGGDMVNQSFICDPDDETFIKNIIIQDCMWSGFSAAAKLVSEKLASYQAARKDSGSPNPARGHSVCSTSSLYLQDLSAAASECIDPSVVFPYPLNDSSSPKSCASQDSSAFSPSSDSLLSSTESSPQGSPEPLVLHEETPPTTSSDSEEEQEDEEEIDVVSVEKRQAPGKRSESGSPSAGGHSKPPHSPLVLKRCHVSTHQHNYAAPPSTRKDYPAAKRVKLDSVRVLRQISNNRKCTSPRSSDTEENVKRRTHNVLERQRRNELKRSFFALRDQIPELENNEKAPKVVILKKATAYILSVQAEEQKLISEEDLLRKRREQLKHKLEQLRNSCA

Row | Structure (SMILES) | Dmax at 0.5 µM ([1]; SKNBE2 cells, 24 h, 0.5 μM) [%] | Dmax at 1 µM ([1]; SKNBE2 cells, 24 h, 1 μM) [%] | Dmax at 3 µM ([1]; SKNBE2 cells, 24 h, 3 μM) [%] | Dmax at 6 µM ([1]; SKNBE2 cells, 24 h, 6 μM) [%] | Dmax at 0.5 µM ([2]; L-363 cells, 24 h) [%] | Dmax at 1 µM ([2]; L-363 cells, 24 h, 1 μM) [%] | Dmax at 3 µM ([2]; L-363 cells, 24 h, 3 μM) [%] | Dmax at 6 µM ([2]; L-363 cells, 24 h, 6 μM) [%] | Dmax at 0.5 µM [1] [%] | Dmax at 1 µM [1] [%] | Dmax at 3 µM [1] [%] | Dmax at 6 µM [1] [%] | Dmax at 1 µM [2] [%] | Dmax at 3 µM [2] [%] | Dmax at 6 µM [2] [%]
1 | CNCC12CCC(C1)N(c1nccc(Nc3cc(C4CCCC4)[nH]n3)n1)C2 (centres unmarked) [Compound 114] | 80 to 100 | 80 to 100 | 80 to 100 | 80 to 100 | 80 to 100 | 80 to 100 | 80 to 100 | 80 to 100 |  |  |  |  |  |  | 
2 | NCC1CN(c2nccc(Nc3cc(C4CCCC4)[nH]n3)n2)CC(F)(F)C1 (centres unmarked) [Compound 115, 2-[5-(Aminomethyl)-3,3-difluoro-1-piperidyl]-N-(5-cyclopentyl-1H-pyrazol-3-yl)pyrimidin-4-amine] | 20 to 49 | 50 to 79 | 80 to 100 | 80 to 100 |  |  | 80 to 100 | 80 to 100 |  |  |  |  |  |  | 
3 | NC[C@@H]1CN(c2nccc(Nc3cc(C4CCCC4)[nH]n3)n2)CCO1 [Compound 116, 2-[(2R)-2-(Aminomethyl)morpholin-4-yl]-N-(5-cyclopentyl-1H-pyrazol-3-yl)pyrimidin-4-amine] | < 20 | < 20 | 80 to 100 | 80 to 100 |  | < 20 | 80 to 100 | 80 to 100 |  |  |  |  |  |  | 
4 | CNC[C@@H]1CN(c2nccc(Nc3cc(C4CCCC4)[nH]n3)n2)CCO1 [Compound 118, N-(5-Cyclopentyl-1H-pyrazol-3-yl)-2-[(2R)-2-(methylaminomethyl)morpholin-4-yl]pyrimidin-4-amine] | < 20 | 20 to 49 | < 20 | 80 to 100 |  | < 20 | < 20 |  |  |  |  |  |  |  | 
5 | N#CC1(CN)CCCN(c2nccc(Nc3cc(C4CC4)[nH]n3)n2)C1 (centres unmarked) [Compound 119, 3-(Aminomethyl)-1-[4-[(5-cyclopropyl-1H-pyrazol-3-yl)amino]pyrimidin-2-yl]piperidine-3-carbonitrile] |  |  |  |  |  |  |  |  | 50 to 79 | 50 to 79 | 80 to 100 | 80 to 100 | 50 to 79 | 80 to 100 | 80 to 100
6 | NCC1CN(c2nccc(Nc3cc(C4CC4)[nH]n3)n2)CC(F)(F)C1 (centres unmarked) [Compound 121, 2-[5-(Aminomethyl)-3,3-difluoro-1-piperidyl]-N-(5-cyclopropyl-1H-pyrazol-3-yl)pyrimidin-4-amine] |  |  |  |  |  |  |  |  | 50 to 79 | 50 to 79 | 80 to 100 | 80 to 100 | 80 to 100 | 80 to 100 | 80 to 100
7 | NC[C@@H]1CN(c2nccc(Nc3cc(C4CC4)[nH]n3)n2)C[C@@H]1F [Compound 122-1, 2-[(3R,4R)-3-(Aminomethyl)-4-fluoro-pyrrolidin-1-yl]-N-(5-cyclopropyl-1H-pyrazol-3-yl)pyrimidin-4-amine] | 20 to 49 | 20 to 49 | 20 to 49 | 80 to 100 | 20 to 49 | 50 to 79 | 80 to 100 | 80 to 100 |  |  |  |  |  |  | 
8 | NC[C@H]1CN(c2nccc(Nc3cc(C4CC4)[nH]n3)n2)C[C@H]1F [Compound 122-2, 2-[(3S,4S)-3-(Aminomethyl)-4-fluoro-pyrrolidin-1-yl]-N-(5-cyclopropyl-1H-pyrazol-3-yl)pyrimidin-4-amine] |  | < 20 | 50 to 79 | 80 to 100 | 20 to 49 | 50 to 79 | 80 to 100 | 80 to 100 |  |  |  |  |  |  | 
9 | NC[C@@H]1CN(c2nccc(Nc3cc(C4CCCC4)[nH]n3)n2)C[C@@H]1F [Compound 123-1, 2-[(3R,4R)-3-(Aminomethyl)-4-fluoro-pyrrolidin-1-yl]-N-(5-cyclopentyl-1H-pyrazol-3-yl)pyrimidin-4-amine] |  | < 20 | 50 to 79 | 80 to 100 | < 20 | 20 to 49 | 80 to 100 | 80 to 100 |  |  |  |  |  |  | 
10 | NC[C@H]1CN(c2nccc(Nc3cc(C4CCCC4)[nH]n3)n2)C[C@H]1F [Compound 123-2, 2-[(3S,4S)-3-(Aminomethyl)-4-fluoro-pyrrolidin-1-yl]-N-(5-cyclopentyl-1H-pyrazol-3-yl)pyrimidin-4-amine] | 20 to 49 | 20 to 49 | 50 to 79 | 80 to 100 | 20 to 49 | 50 to 79 | 80 to 100 | 80 to 100 |  |  |  |  |  |  | 
11 | NCC1CN(c2nccc(Nc3cc(C4CC4)[nH]n3)n2)CC1(F)F (centres unmarked) [Compound 124, 2-[4-(Aminomethyl)-3,3-difluoro-pyrrolidin-1-yl]-N-(5-cyclopropyl-1H-pyrazol-3-yl)pyrimidin-4-amine] | 20 to 49 | 20 to 49 | 20 to 49 | 80 to 100 |  | < 20 |  | 80 to 100 |  |  |  |  |  |  | 
12 | NCC1CN(c2nccc(Nc3cc(C4CCCC4)[nH]n3)n2)CC1(F)F (centres unmarked) [Compound 125, 2-[4-(Aminomethyl)-3,3-difluoro-pyrrolidin-1-yl]-N-(5-cyclopentyl-1H-pyrazol-3-yl)pyrimidin-4-amine] | 20 to 49 | 20 to 49 | 50 to 79 | 80 to 100 | 20 to 49 | 20 to 49 |  | 80 to 100 |  |  |  |  |  |  | 
13 | O=C1c2ccccc2C(=O)N1CC12CC(CN(c3nccc(Nc4cc(C5CC5)[nH]n4)n3)C1)C2 [Compound 126, 2-[[3-[4-[(5-Cyclopropyl-1H-pyrazol-3-yl)amino]pyrimidin-2-yl]-3-azabicyclo[3.1.1]heptan-1-yl]methyl]isoindoline-1,3-dione] | 80 to 100 | 80 to 100 | 80 to 100 | 80 to 100 | 80 to 100 | 80 to 100 | 80 to 100 | 80 to 100 |  |  |  |  |  |  | 
